From patent US11554171B2, “Compounds and methods for the targeted degradation of bromodomain-containing proteins” (Arvinas Operations, Inc., priority 2015, dated 2023)

Tested on: c-myc in 22RV-1 cells
Test: Human c-myc ELISA assay
Assay type: cell-based
Details: Homo sapiens; for Emax: 22Rv1, 18 h, read-out: Degradation of BRD4: Maximum inhibition (%) c-Myc ELISA in 22RV1 cells; for DC50: 22Rv1, read-out: Degradation of BRD4: DC50 (uM) c-Myc ELISA in 22RV1 cells
Procedure, shortened: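 c-myc levels measured by ELISA in RIPA lysates of 22RV-1 cells, calibrated with a 333-0 pg/ml standard curve. Lysates came from cells exposed for 18 h to an 8-point, 1:3 dose series starting at 300 nM or 1 μM final in 0.1% DMSO. Suppression potency given as DC50.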

Row | Compound | DC50 | Emax
1 | Cc1ncsc1-c1ccc(CNC(=O)[C@@H]2C[C@@H](O)CN2C(=O)[C@H](c2cc(OCCO[C@H]3C[C@@H](NC(=O)C[C@@H]4N=C(c5ccc(Cl)cc5)c5c(sc(C)c5C)-n5c(C)nnc54)C3)no2)C(C)C)cc1 [Example 316] | 0.01 to 0.1 µM | 71.4%
2 | Cc1ncsc1-c1ccc([C@H](C)NC(=O)[C@@H]2C[C@@H](O)CN2C(=O)[C@@H](NC(=O)CN2C[C@H](C)N(C3CC4(C3)CN(C(=O)C[C@@H]3N=C(c5ccc(Cl)cc5)c5c(sc(C)c5C)-n5c(C)nnc53)C4)C[C@H]2C)C(C)(C)C)cc1 [Example 359] | 0.01 to 0.1 µM | > 90%
3 | Cc1ncsc1-c1ccc(CNC(=O)[C@@H]2C[C@@H](O)CN2C(=O)[C@@H](NC(=O)COCCCOCCOc2cc(NC(=O)C[C@@H]3N=C(c4ccc(Cl)cc4)c4c(sc(C)c4C)-n4c(C)nnc43)ccc2F)C(C)(C)C)cc1 [Example 130] | < 0.01 µM | 99%
4 | Cc1sc2c(c1C)C(c1ccc(Cl)cc1)=N[C@@H](CC(=O)N[C@H]1C[C@H](Oc3ccc(CC(=O)N[C@H](C(=O)N4C[C@H](O)C[C@H]4C(=O)N[C@@H](C)c4ccc(S(C)(=O)=O)cc4)C(C)(C)C)cc3)C1)c1nnc(C)n1-2 [Example 307] | > 1 µM | 15%
5 | Cc1ncsc1-c1ccc(CNC(=O)[C@@H]2C[C@@H](O)CN2C(=O)[C@@H](NC(=O)COCCOCCOc2ccc3c(c2)c2c(C(N)=O)cc(-c4c(C)noc4C)cc2n3Cc2ccccc2)C(C)(C)C)cc1 [Example 174] | 0.01 to 0.1 µM | 96.4%
6 | Cc1ncsc1-c1ccc(CNC(=O)[C@@H]2C[C@@H](O)CN2C(=O)[C@@H](NC(=O)COCCCOCCCOc2ccc(NC(=O)C[C@@H]3N=C(c4ccc(Cl)cc4)c4c(sc(C)c4C)-n4c(C)nnc43)nc2)C(C)(C)C)cc1 [Example 28] | 0.01 to 0.1 µM | 100%
7 | Cc1ncsc1-c1ccc(CNC(=O)[C@@H]2C[C@@H](O)CN2C(=O)[C@H](C(C)C)n2cc(-c3ccnc(O[C@@H](C)CNC(=O)C[C@@H]4N=C(c5ccc(Cl)cc5)c5c(sc(C)c5C)-n5c(C)nnc54)c3)cn2)cc1 [Example 180] | 0.01 to 0.1 µM | 98.5%
8 | Cc1ncsc1-c1ccc([C@H](C)NC(=O)[C@@H]2C[C@@H](O)CN2C(=O)[C@@H](NC(=O)CCc2ccnc(O[C@H]3C[C@H](NC(=O)C[C@@H]4N=C(c5ccc(Cl)cc5)c5c(sc(C)c5C)-n5c(C)nnc54)C3)c2)C(C)(C)C)cc1 [Example 192] | < 0.01 µM | 93%
9 | Cc1ncsc1-c1ccc([C@H](C)NC(=O)[C@@H]2C[C@@H](O)CN2C(=O)[C@@H](NC(=O)COc2ccc(N3CC(NC(=O)C[C@@H]4N=C(c5ccc(Cl)cc5)c5c(sc(C)c5C)-n5c(C)nnc54)C3)nc2)C(C)(C)C)cc1 [Example 251, (2S,4R)-1-[(2S)-2-(2-{[6-(3-{2-[(9S)-7-(4-chlorophenyl)-4,5,13-trimethyl-3-thia-1,8,11,12-tetraazatricyclo[8.3.0.0^2,^6]trideca-2(6),4,7,10,12-pentaen-9-yl]acetamido}azetidin-1-yl)pyridin-3-yl]oxy}acetamido)-3,3-dimethylbutanoyl]-4-hydroxy-N-[(1S)-1-[4-(4-methyl-1,3-thiazol-5-yl)phenyl]ethyl]pyrrolidine-2-carboxamide] | < 0.01 µM | 92.3%
10 | Cc1ncsc1-c1ccc([C@H](C)NC(=O)[C@@H]2C[C@@H](O)CN2C(=O)[C@@H](NC(=O)CN2CCC(N3CCC(NC(=O)C[C@@H]4N=C(c5ccc(Cl)cc5)c5c(sc(C)c5C)-n5c(C)nnc54)CC3)CC2)C(C)(C)C)cc1 [Example 353, (2S,4R)-1-[(2S)-2-{2-[4-(4-{2-[(9S)-7-(4-chlorophenyl)-4,5,13-trimethyl-3-thia-1,8,11,12-tetraazatricyclo[8.3.0.0^2,6]trideca-2(6),4,7,10,12-[0261]pentaen-9-yl]acetamido}piperidin-1-yl)piperidin-1-yl]acetamido}-3,3-dimethylbutanoyl]-4-hydroxy-N-[(1S)-1-[4-(4-methyl-1,3-thiazol-5-yl)phenyl]ethyl]pyrrolidine-2-carboxamide] | 0.1 to 1 µM | > 90%
11 | Cc1ncsc1-c1ccc([C@H](C)NC(=O)[C@@H]2C[C@@H](O)CN2C(=O)[C@H](C(C)C)n2cc(-c3ccnc(O[C@H]4C[C@@H](NC(=O)C[C@@H]5N=C(c6ccc(Cl)cc6)c6c(sc(C)c6C)-n6c(C)nnc65)C4)c3)cn2)cc1 [Example 219, (2S,4R)-4-hydroxy-N-[(1S)-1-[4-(4-methyl-1,3-thiazol-5-yl)phenyl]ethyl]-1-[(2S)-3-methyl-2-(4-{2-[(1,3-cis)-3-{2-[(9S)-7-(4-chlorophenyl)-4,5,13-trimethyl-3-thia-1,8,11,12-tetraazatricyclo[8.3.0.0^2,^6]trideca-2(6),4,7,10,12-pentaen-9-yl]acetamido}cyclobutoxy]pyridin-4-yl}-1H-pyrazol-1-yl)butanoyl]pyrrolidine-2-carboxamide] | < 0.01 µM | 95.5%
12 | Cc1ncsc1-c1ccc(CNC(=O)[C@@H]2C[C@@H](O)CC2C(=O)[C@@H](NC(=O)CO[C@H]2CCN(c3ccc([C@@H](C)NC(=O)C[C@@H]4N=C(c5ccc(Cl)cc5)c5c(sc(C)c5C)-n5c(C)nnc54)cc3)C2)C(C)(C)C)cc1 (stereo partly drawn) [Example 66] | 0.01 to 0.1 µM | 89.4%
13 | Cc1ncsc1-c1ccc([C@H](C)NC(=O)[C@@H]2C[C@@H](O)CN2C(=O)[C@@H](NC(=O)CCc2cc(F)cc(O[C@H](C)CNC(=O)C[C@@H]3N=C(c4ccc(Cl)cc4)c4c(sc(C)c4C)-n4c(C)nnc43)c2)C(C)(C)C)cc1 [Example 203] | < 0.01 µM | 92%

Second part, led by results:

Row | DC50 | Compound | Emax
14 | 0.01 to 0.1 µM | Cc1ncsc1-c1ccc(CNC(=O)[C@@H]2C[C@@H](O)CN2C(=O)[C@@H](NC(=O)COCCOCCOCCOc2ccc(NC(=O)C[C@@H]3N=C(c4ccc(Cl)cc4)c4c(sc(C)c4C)-n4c(C)nnc43)cc2)C(C)(C)C)cc1 [Example 11] | 99.5%
15 | < 0.01 µM | Cc1ncsc1-c1ccc(CNC(=O)[C@@H]2C[C@@H](O)CN2C(=O)[C@@H](c2cc(OCCN3CC[C@H](NC(=O)C[C@@H]4N=C(c5ccc(Cl)cc5)c5c(sc(C)c5C)-n5c(C)nnc54)C3)no2)C(C)C)cc1 [Example 310] | 94%
16 | 0.01 to 0.1 µM | Cc1ncsc1-c1ccc([C@H](C)NC(=O)[C@@H]2C[C@@H](O)CN2C(=O)[C@@H](NC(=O)[C@@H]2CC[C@H](COCCCNC(=O)C[C@@H]3N=C(c4ccc(Cl)cc4)c4c(sc(C)c4C)-n4c(C)nnc43)O2)C(C)(C)C)cc1 [Example 186] | 94.5%
17 | 0.01 to 0.1 µM | Cc1ncsc1-c1ccc(CNC(=O)[C@@H]2C[C@@H](O)CN2C(=O)[C@@H](NC(=O)COCCCOCCCOc2ccc([C@H](C)NC(=O)C[C@@H]3N=C(c4ccc(Cl)cc4)c4c(sc(C)c4C)-n4c(C)nnc43)cc2)C(C)(C)C)cc1 [Example 25, (2S,4R)-1-[(2S)-2-{2-[3-(3-{4-[(1S)-1-{2-[(9S)-7-(4-chlorophenyl)-4,5,13-trimethyl-3-thia-1,8,11,12-tetraazatricyclo[8.3.0.0^2,^6]trideca-2(6),4,7,10,12-pentaen-9-yl]acetamido}ethyl]phenoxy}propoxy)propoxy]acetamido}-3,3-dimethylbutanoyl]-4-hydroxy-N-{[4-(4-methyl-1,3-thiazol-5-yl)phenyl]methyl}pyrrolidine-2-carboxamide] | 100%
18 | > 1 µM | Cc1ncsc1-c1ccc(CNC(=O)[C@@H]2C[C@@H](O)CN2C(=O)[C@@H](NC(=O)COCCN2CCC(NC(=O)C[C@@H]3N=C(c4ccc(Cl)cc4)c4c(sc(C)c4C)-n4c(C)nnc43)CC2)C(C)(C)C)cc1 [Example 79] | 50.8%
19 | 0.01 to 0.1 µM | Cc1ncoc1-c1ccc([C@H](C)NC(=O)[C@@H]2C[C@@H](O)CN2C(=O)C(C(C)C)n2cc(-c3cccc(O[C@H]4C[C@@H](NC(=O)C[C@@H]5N=C(c6ccc(Cl)cc6)c6c(sc(C)c6C)-n6c(C)nnc65)C4)c3)cn2)cc1 (stereo partly drawn) [Example 286] | 93%
20 | 0.01 to 0.1 µM | Cc1ncsc1-c1ccc(CNC(=O)[C@@H]2C[C@@H](O)CN2C(=O)[C@H](C(C)C)n2cc(-c3cccc(O[C@H]4C[C@H](NC(=O)C[C@@H]5N=C(c6ccc(Cl)cc6)c6c(sc(C)c6C)-n6c(C)nnc65)C4)c3)cn2)cc1 [Example 217] | 91.9%
21 | > 1 µM | Cc1ncsc1-c1ccc(CNC(=O)[C@@H]2C[C@H](O)CN2C(=O)[C@@H](NC(=O)COCCCOCCCOc2ccc(NC(=O)C[C@@H]3N=C(c4ccc(Cl)cc4)c4c(sc(C)c4C)-n4c(C)nnc43)cc2)C(C)(C)C)cc1 [Example 18] | 39%
22 | 0.01 to 0.1 µM | Cc1ncsc1-c1ccc(CNC(=O)[C@@H]2C[C@@H](O)CN2C(=O)[C@@H](NC(=O)COCCCOc2ccc(-c3cnc(NC(=O)C[C@@H]4N=C(c5ccc(Cl)cc5)c5c(sc(C)c5C)-n5c(C)nnc54)cn3)cc2)C(C)(C)C)cc1 [Example 21, (2S,4R)-1-[(2S)-2-(2-{3-[4-(5-{2-[(9S)-7-(4-chlorophenyl)-4,5,13-trimethyl-3-thia-1,8,11,12-tetraazatricyclo[8.3.0.0^2,^6]trideca-2(6),4,7,10,12-pentaen-9-yl]acetamido}pyrazin-2-yl)phenoxy]propoxy}acetamido)-3,3-dimethylbutanoyl]-4-hydroxy-N-{[4-(4-methyl-1,3-thiazol-5-yl)phenyl]methyl}pyrrolidine-2-carboxamide] | 91%
23 | 0.1 to 1 µM | CC(=O)N[C@H](C(=O)N1C[C@H](O)C[C@H]1C(=O)NCc1ccc(-c2scnc2C)cc1OCCCOc1ccc(C2=N[C@@H](CC(=O)Nc3ccccc3)c3nnc(C)n3-c3sc(C)c(C)c32)cc1)C(C)(C)C [Example 155] | 65.5%
24 | < 0.01 µM | Cc1ncsc1-c1ccc([C@H](C)NC(=O)[C@@H]2C[C@@H](O)CN2C(=O)[C@@H](NC(=O)c2cc3ccc(O[C@H]4C[C@H](NC(=O)C[C@@H]5N=C(c6ccc(Cl)cc6)c6c(sc(C)c6C)-n6c(C)nnc65)C4)cc3o2)C(C)(C)C)cc1 [Example 229] | 100%
